# Laboratory results reported in PMC11203576 (International Journal of Molecular Sciences, 2024).
# Molecular target: MVL (rMVL) (Microcystis viridis, UniProt Q9RHG4)
# Assay type: binding
# MVL (rMVL), sequence (Q9RHG4 2-114 limits assumed): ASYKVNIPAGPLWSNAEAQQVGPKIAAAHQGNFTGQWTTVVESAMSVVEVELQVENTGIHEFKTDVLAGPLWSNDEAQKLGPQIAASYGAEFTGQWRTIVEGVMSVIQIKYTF
smiles,measurement,value
OC[C@H]1OC(O)[C@H](O)[C@@H](O)[C@H]1O (stereo partly shown) [galactose],% SPR signal retained at 100 mM,~ 40%
